The record followed here is PubChem BioAssay AID330 (DTP/NCI, 2004).

Values joined by “and” are separate entries in the source; they are usually repeats but may differ in a detail not shown here. Identical values can stand only once. Toxic doses and inconclusive results are not listed.

The experiment concerns P388 leukemia ip, CD2F1 mice, survival T/C. The experiment is described as follows: NCI In Vivo Anticancer Drug Screen. Data for tumor model P388 Leukemia (intraperitoneal) in CD2F1 (CDF1) mice. Particulars: endpoint: median survival time, higher = longer survival. The method, boiled down: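 Mice carrying the transplanted tumor received test compound or vehicle. Survival was recorded in each group, and the value is the treated-group measurement divided by that of the vehicle-treated control group.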

Setting [1] is: dose: 100.0 mg/kg/injection, schedule: Q01DX009 (ip), vehicle: saline with Tween-80.

`C=C1CC[C@]2(C)CC[C@]3(C)C4=CC=C5C(=CC(=O)C(O)=C5C)[C@]4(C)CC[C@@]3(C)[C@@H]2C1`: the T/C is, setting by setting: (dose: 0.06 mg/kg/injection, schedule: Q01DX009 (ip), vehicle: saline with Tween-80) 97 % of control; (dose: 0.09 mg/kg/injection, schedule: Q01DX009 (ip), vehicle: none) 93 % of control; (dose: 0.12 mg/kg/injection, schedule: Q01DX009 (ip), vehicle: saline with Tween-80) 103 % of control; (dose: 0.19 mg/kg/injection, schedule: Q01DX009 (ip), vehicle: none) 103 % of control; (dose: 0.25 mg/kg/injection, schedule: Q01DX009 (ip), vehicle: saline with Tween-80) 100 % of control and 103 % of control; (dose: 0.5 mg/kg/injection, schedule: Q01DX009 (ip), vehicle: none) 107 % of control and 98 % of control. Besides, the T/C by setting is: (dose: 0.5 mg/kg/injection, schedule: Q01DX009 (ip), vehicle: saline with Tween-80) 103 % of control and 115 % of control; (dose: 0.75 mg/kg/injection, schedule: Q01DX009 (ip), vehicle: none) 103 % of control and 107 % of control; (dose: 1.0 mg/kg/injection, schedule: Q01DX009 (ip), vehicle: none) 110 % of control; (dose: 1.0 mg/kg/injection, schedule: Q01DX009 (ip), vehicle: saline with Tween-80) 112 % of control and 119 % of control; (dose: 1.5 mg/kg/injection, schedule: Q01DX009 (ip), vehicle: none) 105 % of control and 120 % of control and 98 % of control; (dose: 2.0 mg/kg/injection, schedule: Q01DX009 (ip), vehicle: none) 115 % of control and 120 % of control. Also, the T/C (dose: 3.0 mg/kg/injection, schedule: Q01DX009 (ip), vehicle: none) is 95 % of control.
Turning to `CCCCCCCCCCCCCCCCCC[N+]1(CC)CCSCC1`, the T/C (dose: 25.0 mg/kg/injection, schedule: Q01DX001 (ip), vehicle: saline with Tween-80) is 97 % of control; the T/C (dose: 50.0 mg/kg/injection, schedule: Q01DX001 (ip), vehicle: saline with Tween-80) is 98 % of control; the T/C (dose: 100.0 mg/kg/injection, schedule: Q01DX001 (ip), vehicle: saline with Tween-80) is 94 % of control; the T/C (dose: 400.0 mg/kg/injection, schedule: Q01DX001 (ip), vehicle: saline with Tween-80) was 86 % of control.
Regarding `O=C1NC2C(=CC(O)C(O)C2O)c2cc3c(cc21)OCO3` (configuration not stated), the T/C (dose: 3.12 mg/kg/injection, schedule: Q01DX009 (ip), vehicle: saline + alcohol) was 102 % of control; the T/C (dose: 6.25 mg/kg/injection, schedule: Q01DX005 (ip), vehicle: saline + alcohol) is 111 % of control; the T/C (dose: 6.25 mg/kg/injection, schedule: Q01DX009 (ip), vehicle: saline + alcohol) was 102 % of control; the T/C (dose: 12.5 mg/kg/injection, schedule: Q01DX005 (ip), vehicle: saline + alcohol) was 111 % of control; the T/C (dose: 25.0 mg/kg/injection, schedule: Q01DX005 (ip), vehicle: saline + alcohol) was 105 % of control; the T/C (dose: 25.0 mg/kg/injection, schedule: Q01DX009 (ip), vehicle: saline + alcohol) is 101 % of control. In addition, the T/C (dose: 50.0 mg/kg/injection, schedule: Q01DX005 (ip), vehicle: saline + alcohol) was 105 % of control.
Turning to `Cc1cccc(Nc2nc(C)nc3[nH]c(CC(C)C)c(C)c23)c1`, the T/C reads like this: (dose: 50.0 mg/kg/injection, schedule: Q01DX005 (ip), vehicle: Klucel (hydroxypropylcellulose) (HPC)) 91 % of control; (dose: 100.0 mg/kg/injection, schedule: Q01DX005 (ip), vehicle: Klucel (hydroxypropylcellulose) (HPC)) 96 % of control; (dose: 200.0 mg/kg/injection, schedule: Q01DX005 (ip), vehicle: Klucel (hydroxypropylcellulose) (HPC)) 98 % of control.
On to `CC(=O)C1=C(C)NC(C)=C(C(C)=O)C1c1ccccc1`, for which the T/C runs as follows: under setting [1], 100 % of control; (dose: 200.0 mg/kg/injection, schedule: Q01DX009 (ip), vehicle: saline with Tween-80) 100 % of control; (dose: 400.0 mg/kg/injection, schedule: Q01DX009 (ip), vehicle: saline with Tween-80) 90 % of control.
Take `CCOC(=O)C1=C(C)Oc2cc3c(cc2C1c1ccc(OC)cc1)OCO3` (configuration not stated): the T/C is 105 % of control (dose: 60.0 mg/kg/injection, schedule: Q01DX005 (ip), vehicle: saline with Tween-80); 105 % of control (dose: 120.0 mg/kg/injection, schedule: Q01DX005 (ip), vehicle: saline with Tween-80); 94 % of control (dose: 240.0 mg/kg/injection, schedule: Q01DX005 (ip), vehicle: saline with Tween-80).
`O=S(=O)(O)SCCN1CCCCC1`: the T/C runs as follows: (dose: 12.5 mg/kg/injection, schedule: Q01DX009 (ip), vehicle: saline) 110 % of control; (dose: 25.0 mg/kg/injection, schedule: Q01DX009 (ip), vehicle: saline) 100 % of control; (dose: 50.0 mg/kg/injection, schedule: Q01DX009 (ip), vehicle: saline) 100 % of control.
In the case of `COC(=O)Nc1cnc(C)c(C)c1-c1ccc(OC)c(OC)c1OCc1ccccc1`, the T/C by setting is: (dose: 0.05 mg/kg/injection, schedule: Q01DX009 (ip), vehicle: water) 96 % of control; (dose: 0.1 mg/kg/injection, schedule: Q01DX009 (ip), vehicle: water) 111 % of control; (dose: 0.2 mg/kg/injection, schedule: Q01DX009 (ip), vehicle: water) 110 % of control; (dose: 0.4 mg/kg/injection, schedule: Q01DX009 (ip), vehicle: water) 104 % of control and 105 % of control; (dose: 0.8 mg/kg/injection, schedule: Q01DX009 (ip), vehicle: water) 106 % of control; (dose: 1.6 mg/kg/injection, schedule: Q01DX009 (ip), vehicle: water) 109 % of control. Besides, the T/C runs as follows: (dose: 3.2 mg/kg/injection, schedule: Q01DX009 (ip), vehicle: water) 103 % of control; (dose: 6.25 mg/kg/injection, schedule: Q01DX009 (ip), vehicle: other) 103 % of control; (dose: 6.4 mg/kg/injection, schedule: Q01DX009 (ip), vehicle: water) 104 % of control; (dose: 12.5 mg/kg/injection, schedule: Q01DX009 (ip), vehicle: other) 103 % of control; (dose: 25.0 mg/kg/injection, schedule: Q01DX009 (ip), vehicle: other) 104 % of control; (dose: 50.0 mg/kg/injection, schedule: Q01DX009 (ip), vehicle: other) 98 % of control. For the same molecule, the T/C reads like this: (dose: 100.0 mg/kg/injection, schedule: Q01DX009 (ip), vehicle: other) 108 % of control; (dose: 200.0 mg/kg/injection, schedule: Q01DX009 (ip), vehicle: other) 99 % of control; (dose: 400.0 mg/kg/injection, schedule: Q01DX009 (ip), vehicle: other) 99 % of control.
On to `N#CCC(=O)N/N=C(\CC1(O)C(=O)Nc2c(Cl)cc(Cl)cc21)c1cccc2ccccc12` (configuration not stated), for which the T/C by setting is: (dose: 12.5 mg/kg/injection, schedule: Q01DX005 (ip), vehicle: saline with Tween-80) 90 % of control; (dose: 25.0 mg/kg/injection, schedule: Q01DX005 (ip), vehicle: saline with Tween-80) 89 % of control; (dose: 50.0 mg/kg/injection, schedule: Q01DX005 (ip), vehicle: saline with Tween-80) 88 % of control; (dose: 100.0 mg/kg/injection, schedule: Q01DX005 (ip), vehicle: saline with Tween-80) 88 % of control.
On to `Cc1cc(NC(=O)NCc2ccc(N3C(N)=NC(N)=NC3(C)C)cc2)ccc1S(=O)(=O)F`, for which the T/C (dose: 12.5 mg/kg/injection, schedule: Q01DX009 (ip), vehicle: saline with Tween-80) is 119 % of control; the T/C (dose: 25.0 mg/kg/injection, schedule: Q04DX003 (ip), vehicle: saline with Tween-80) was 105 % of control; the T/C (dose: 25.0 mg/kg/injection, schedule: Q04DX003 (ip), vehicle: saline) was 109 % of control; the T/C (dose: 50.0 mg/kg/injection, schedule: Q04DX003 (ip), vehicle: saline with Tween-80) is 119 % of control; the T/C under setting [1] was 176 % of control; the T/C (dose: 100.0 mg/kg/injection, schedule: Q04DX003 (ip), vehicle: saline with Tween-80) is 153 % of control. Moreover, the T/C by setting is: (dose: 200.0 mg/kg/injection, schedule: Q04DX003 (ip), vehicle: saline with Tween-80) 164 % of control; (dose: 200.0 mg/kg/injection, schedule: Q04DX003 (ip), vehicle: saline) 154 % of control; (dose: 400.0 mg/kg/injection, schedule: Q04DX003 (ip), vehicle: saline) 90 % of control.
Consider `CCOC(=O)C1=C(C)O/C(=C/C=C/c2ccccc2)C1=O`, for which the T/C is 102 % of control (dose: 50.0 mg/kg/injection, schedule: Q01DX009 (ip), vehicle: Klucel (hydroxypropylcellulose) (HPC)); 98 % of control (dose: 100.0 mg/kg/injection, schedule: Q01DX009 (ip), vehicle: Klucel (hydroxypropylcellulose) (HPC)); 103 % of control (dose: 200.0 mg/kg/injection, schedule: Q01DX009 (ip), vehicle: Klucel (hydroxypropylcellulose) (HPC)).
